{"source": "patent US12031170B2", "about": "“System for improved production titers in fermentations” (DANMARKS TEKNISKE UNIVERSITET, priority 2015, dated 2024)", "format_in_all_cases": "cell-based", "key": {"[1]": {"system": "E. coli XL-1 with pBAD-TA5", "experiment": "L-arabinose-addiction yefM-yoeB TA system, cell growth (OD600)", "experimental": "The yefM-yoeB TA pair was cloned into a plasmid (pBAD-TA5: araC, pBAD-yefM, pLac-yoeB, ampR) (Table 1) employing standard PCR cloning protocols (known in the art) and the plasmid was transformed into the host stain E. coli XL-1 with the genotype: recA1endA1 gyrA96 thi-1 hsdR17 supE44 relA1 lac[F′proAB lacIqZM15 Tn10 (TetR)]. Electroporation recovery of transformed cells was carried out in SOC medium (2% tryptone, 0.5% yeast extract, 10 mM NaCl, 2.5 mM KCl, 10 mM MgCl2, 10 mM MgSO4, and 20 mM glucose).\nTransformed E. coli cultures were grown in 2xYT medium (10 g/L yeast extract, 16 g/L tryptone, 5 g/L NaCl). Antibiotics were added to select for maintenance of plasmids in strains transformed with these, according to their respective antibiotic resistance gene. Antibiotic concentrations when added were as follows: ampicillin 100 μg/mL, chloramphenicol 30 μg/mL, spectinomycin 50 μg/mL, kanamycin 50 μg/mL.\nThe expression of the yoeB gene in the yefM-yoeB TA pair construct (FIG. 2) was placed under the control of the Lac promoter, which is inducible by isopropyl β-D-1-thiogalactopyranoside (IPTG). Exposure of the cells to increasing concentrations of IPTG induced sufficient expression of the YoeB toxin to prevent growth, when the cells were grown in the absence of any source of L-arabinose (FIG. 3A). […]"}, "[2]": {"system": "E. coli XL1 with folP/glmM driven by pBAD promoter", "experiment": "L-arabinose-addiction regulated essential gene operon folP/glmM, cell growth (OD600)", "details": "37° C."}, "[3]": {"system": "E. coli XL1 with pBAT-TA5", "experiment": "TPP-responsive riboswitch-regulated TA system, cell growth (OD600)", "details": "presence of inducer TPP (500 μM added to the growth medium)", "from_the_text": "A TPP-responsive riboswitch (ThiMN15 #19) was engineered into the previously constructed L-arabinose-responsive TA-based correction system (pBAD-TA5 to yield pBAT-TA5). This TPP riboswitch functions as an “ON-type” when in the presence of its ligand TPP, and it is functional at the level of translation. The riboswitch was inserted into the DNA region of the pBAD-TA5 gene construct that encodes the 5′ untranslated region (UTR) of the antitoxin mRNA sequence (FIG. 17). For optimal functionality of the riboswitch, a protein-encoding sequence tet was also added as N-terminal fusion to YefM as it originated from the screen where ThiMN15#19 had been identified. An alternative TPP-responsive riboswitch was constructed, where an “OFF-type” riboswitch was inserted into the DNA region of the pBAD-TA5 gene construct that encodes the 5′-UTR of the toxin-encoding sequence to yield the same ligand-responsive growth.\nAn alternative TPP responsive-riboswitch-regulated TA correction system was engineered with a constitutive promoter driving expression of the riboswitch-yefM mRNA. From a selection of constitutive promoters (SEQ ID Nos.: 47-65, 89) of different strengths, the pBAD promoter of pBAT-TA5 was replaced and the resulting plasmids transformed into E. coli XL1. […]"}, "E. coli strain e3.22#4": {"system": "E. coli strain e3.22#4", "experiment": "Benzoic acid-dependent growth of addicted strain", "details": "5 mM benzoic acid", "from_the_text": "(§1) The native single genomic copy of the essential gene operon folP-glmM in the E. coli XL1 host strain was modified to allow its transcriptional control by the benzoic acid-responsive promoter pSAL [SEQ ID No:118]. First, a gene encoding a benzoic acid biosensor (Pseudomonas putida nahR) (Table 12) was introduced into the XL1 host strain on the plasmid pBABspec. Then, replacement of the native folP-glmM promoter by the pSAL promoter was engineered by means of lambda red-mediated recombineering.\nRecombineering was performed as described in section 2.3 using well-described methods utilizing the pKD46 plasmid (Datsenko and Wanner, 2000)). Instead of gene disruption, a specific set of knock-out DNA fragments was used to only replace the native essential folP-glmM operon promoter and folP RBS. This set of knockout DNA fragments contained a kanamycin resistance cassette and the pSAL promoter, as illustrated in the cartoon in FIG. 8, as well as a redundant nucleotide (“N”, wherein “N” is any of A, T , G or C) in the RBS for folP-glmM to generate a four-membered library of folP translational strengths. […]\n(§2) A selected addicted strain (e3.22#4) and the non-addicted control E. coli strain (e3.18CON) were then tested for benzoic acid dependent growth by cultivation in a microtiter plate reader in liquid 2xYT medium supplemented with spectinomycin and kanamycin and w/wo salicylic acid (0 or 5 mM). […]"}, "[4]": {"system": "E. coli control strain e3.22CON", "experiment": "Toxicity of benzoic acid to non-addicted control strain, growth in microtiter plate", "details": "2xYT, 5 mM benzoic acid, 37 deg. C.", "experimental": "A non-addicted control E. coli strain (e3.22CON), also equipped with spectinomycin and kanamycin resistance genes, but wild-type control of folP-glmM expression (Table 13), was constructed in order to test the toxicity of benzoic acid.\nA selected addicted strain (e3.22#4) and the non-addicted control E. coli strain (e3.18CON) were then tested for benzoic acid dependent growth by cultivation in a microtiter plate reader in liquid 2xYT medium supplemented with spectinomycin and kanamycin and w/wo salicylic acid (0 or 5 mM). […] In contrast to the control strain, the growth rate and final biomass yield of the addicted strain e3.18#1 was enhanced by supplementation with benzoic acid with a growth rate higher than otherwise expected for non-addicted strains (FIG. 16)."}, "[5]": {"system": "E. coli with mevalonate biosensor TA plasmid (pBAM-TA5)", "details": "37 mM mevalonate added; no IPTG"}, "E. coli strain e3.18#1": {"system": "E. coli strain e3.18#1", "experiment": "Salicylic acid-dependent growth of addicted strain", "details": "5 mM salicylic acid", "from_the_text": "as §1, with “salicylic” for “benzoic”, “nahR_Asn169 (Cebolla et al., 1997))” for “nahR) (Table 12)”, “pBANspec (Table 10).” for “pBABspec.”\nRecombineering was performed as described in section 2.3 using well-described methods utilizing the pKD46 plasmid (Datsenko and Wanner, 2000). Instead of gene disruption, a specific set of knock-out DNA fragments was used to only replace the native essential folP-glmM operon promoter and folP RBS. […]\nas §2, with “(e3.18#1)” for “(e3.22#4)”, “salicylic” for “benzoic”, “presence/absence of” for “w/wo”"}, "[6]": {"system": "E. coli control strain e3.18CON", "experiment": "Toxicity of salicylic acid to non-addicted control strain, growth in microtiter plate", "details": "2xYT, 5 mM salicylic acid, 37 deg. C.", "experimental": "Recombineering was performed as described in section 2.3 using well-described methods utilizing the pKD46 plasmid (Datsenko and Wanner, 2000). Instead of gene disruption, a specific set of knock-out DNA fragments was used to only replace the native essential folP-glmM operon promoter and folP RBS. This set of knockout DNA fragments contained a kanamycin resistance cassette and the pSAL promoter, as illustrated in the cartoon in FIG. 8, as well as a redundant nucleotide (“N”, wherein “N” is any of A, T , G or C) in the RBS for folP-glmM to generate a four-membered library of folP translational strengths. This library allows selection of a translational strength for folP that suits the transcriptional regulation by the biosensor. Finally, candidate recombineered cells were selected for by plating on LB agar plates supplemented with 5 mM salicylic acid and spectinomycin for maintenance of pBANspec; and kanamycin for selection of inserted knockout fragment. […]\nas §2, with “(e3.18#1)” for “(e3.22#4)”, “salicylic” for “benzoic”, “presence/absence of” for “w/wo”"}, "[7]": {"system": "E. coli control strain e3.16CON", "experiment": "Toxicity of triacetic acid lactone to non-addicted control strain, growth in microtiter plate", "experimental": "A non-addicted control E. coli strain (e3.16CON), also equipped with spectinomycin and kanamycin resistance genes, but with wildtype control of folP-glmM expression (Table 9), was constructed in order to test the toxicity of triacetic acid lactone.\nThe non-addicted control E. coli strain (e3.16CON), and a selected addicted strain (e3.16#5) were then tested and compared for triacetic acid lactone-dependent growth by cultivation in a microtiter plate reader in liquid 2xYT medium supplemented with spectinomycin and kanamycin and a three-step gradient of triacetic acid lactone (0, 2 and 20 mM). […] The observed growth depression was greatest at a concentration of 20 mM triacetic acid lactone."}, "E. coli strain e3.16#5": {"system": "E. coli strain e3.16#5", "experiment": "Triacetic acid lactone-dependent growth of addicted strain", "from_the_text": "The native single genomic copy of the essential gene operon folP-glmM in the E. coli XL1 host strain was modified to allow its transcriptional control by the triacetic acid lactone-responsive promoter pBAD. First, a gene encoding a triacetic acid lactone biosensor (AraCtal (Tang et al., 2013)) was introduced into the XL1 host strain on the plasmid pBALspec (Table 8). Then, replacement of the native folP-glmM promoter in this host strain by the pBAD promoter was engineered by means of lambda red-mediated recombineering. Recombineering was performed using well-described methods utilizing the pKD46 plasmid (Datsenko and Wanner, 2000), but instead of gene disruption, a specific set of knock-out DNA fragments (produced by PCR) was used to only replace the native essential folP-glmM operon promoter and folP ribosomal binding site (RBS). This set of knockout DNA fragments each contained a kanamycin resistance cassette and the pBAD promoter, as illustrated in the cartoon in FIG. 8. The nucleotide sequence of the set of gene knockout DNA fragments differed only with respect to the redundant nucleotide (“N”, wherein “N” is any of A, T, G or C) in the RBS sequence (ACTTGC) for folP-glmM, which generated a four-membered library of folP translational strengths.\nFor recombineering, as performed in standard pKD46 protocols, the target strain was first transformed with pKD46, and a single colony of this strain was then cultured in a 25 mL 2xYT culture at 30 degrees C. and 250 rpm horizontal shaking. When the culture reached OD600=0.1, the lambda Red system of pKD46 was induced by addition of 0.2 vol % L-arabinose, and then further cultured to grow to OD600=0.4. […]\nThe non-addicted control E. coli strain (e3.16CON), and a selected addicted strain (e3.16#5) were then tested and compared for triacetic acid lactone-dependent growth by cultivation in a microtiter plate reader in liquid 2xYT medium supplemented with spectinomycin and kanamycin and a three-step gradient of triacetic acid lactone (0, 2 and 20 mM). […]"}}, "data": [{"smiles": "CC(C)S[C@@H]1O[C@H](CO)[C@H](O)[C@H](O)[C@H]1O", "note": "[IPTG, isopropyl β-D-1-thiogalactopyranoside]", "values": [{"measurement": "IPTG (toxin inducer) concentration at which cell growth was strongly inhibited", "setting": "[1]; no L-arabinose, yoeB toxin under pLac", "result": "≥ 0.1", "unit": "mM"}]}, {"smiles": "O=C[C@H](O)[C@@H](O)[C@@H](O)CO", "note": "[L-arabinose]", "values": [{"measurement": "L-arabinose concentration sufficient to restore wild-type growth", "setting": "[1]; co-addition with IPTG at concentrations up to 0.5 mM", "result": 0.1, "unit": "%"}, {"measurement": "cell growth", "setting": "[2]; 2xYT supplemented with 0.0025% L-arabinose, 12-hour time course", "result": "completely failed to grow"}, {"measurement": "cell growth", "setting": "[2]; 2xYT supplemented with 0.25% L-arabinose", "result": "exponential"}]}, {"smiles": "Cc1ncc(C[n+]2csc(CCO[P@](=O)(O)OP(=O)(O)O)c2C)c(N)n1", "note": "[TPP, thiamine pyrophosphate]", "values": [{"measurement": "effect on growth", "setting": "[3]", "result": "enhanced growth"}]}, {"smiles": "O=C(O)c1ccccc1", "note": "[benzoic acid]", "values": [{"measurement": "growth rate and final biomass yield of addicted strain", "setting": "E. coli strain e3.22#4", "result": "enhanced"}, {"measurement": "effect on growth of control strain", "setting": "[4]", "result": "relative reduction in growth rate and final biomass yield"}]}, {"smiles": "CC(O)(CCO)CC(=O)O", "note": "(stereo not drawn) [mevalonate]", "values": [{"measurement": "effect on cell growth compared to cultures devoid of mevalonate", "setting": "[5]", "result": "increase in cell growth"}]}, {"smiles": "O=C(O)c1ccccc1O", "note": "[salicylic acid]", "values": [{"measurement": "growth rate of addicted strain", "setting": "E. coli strain e3.18#1", "result": "not reduced"}, {"measurement": "effect on growth of control strain", "setting": "[6]", "result": "relative reduction in growth rate and final biomass yield"}]}, {"smiles": "Cc1cc(O)cc(=O)o1", "note": "[triacetic acid lactone]", "values": [{"measurement": "effect on growth of control strain", "setting": "[7]; 2xYT, 0, 2 and 20 mM triacetic acid lactone, 37 deg. C.", "result": "relative reduction in growth rate"}, {"measurement": "concentration at which observed growth depression was greatest", "setting": "[7]; gradient 0, 2 and 20 mM", "result": 20000, "unit": "µM"}, {"measurement": "final cell yield of addicted strain", "setting": "E. coli strain e3.16#5; 2 mM triacetic acid lactone", "result": "increased"}, {"measurement": "growth rate of addicted strain", "setting": "E. coli strain e3.16#5; 2 mM triacetic acid lactone", "result": "enhanced"}, {"measurement": "final cell yield of addicted strain", "setting": "E. coli strain e3.16#5; 20 mM triacetic acid lactone", "result": "increased"}]}]}
